Paper PMC9930781, “Design, synthesis, docking, and anticancer evaluations of new thiazolo[3,2-a] pyrimidines as topoisomerase II inhibitors” (Journal of Enzyme Inhibition and Medicinal Chemistry, 2023)
Where two headings read alike, the source gives them in different places.

Experiments:
[1] = system: MCF7 breast cancer cell line; experiment: MTT cytotoxicity assay, MCF7; conditions: SI = IC50 normal cell (WI-38)/IC50 cancer cell (MCF7)
Procedure: (§1) The MTT test was used to evaluate the inhibitory effects of the substances on cell proliferation in the aforementioned cell lines. This colorimetric assay targets the mitochondrial succinate dehydrogenase of living cells to change yellow tetrazolium bromide (MTT) to a purple formazan derivative. […] Then, the cells were incubated for 24 h and exposed to various chemical concentrations. 20 μL of a 5 mg/mL MTT solution was applied after a 24-h drug treatment period and incubated for 4 h. To dissolve the produced purple formazan, each well receives 100 μL of dimethyl sulfoxide (DMSO). […] The formula for calculating the relative percentage of cell viability was (A570 of treated samples/A570 of the untreated sample) × 100.
The newly prepared compounds were screened against three cancer cell lines: namely, breast cancer cell line MCF7, non-small cell lung cancer (NSCLC) cell line A549, and renal cancer cell line A498, using the MTT colorimetric assay.

[2] = system: A549 non-small cell lung cancer (NSCLC) cell line; experiment: MTT cytotoxicity assay, A549
Procedure: as §1

[3] = In vitro cytotoxicity on WI-38 human cell line (MTT); assay type: cell-based; conditions: WI-38 normal fibroblast cells, WI-38 normal fibroblasts
Procedure: Cell line cells were provided from the American Type Culture Collection cultured in DMEM (Invitrogen/Life Technologies) with 10% FBS (Hyclone), 1% penicillin-streptomycin, and 10 μg/mL insulin (Sigma). The remainder of the chemicals and reagents were provided by either Sigma or Invitrogen. Prior to the MTT assay, plated cells were incubated for 24 h in a 96-well plate with 100 μl of the test substance per well and 100 μl of complete growth medium (cell density 1.2–1.8 × 10,000 cells/well). Cultures were transferred from the incubator and placed in a sterile work area or laminar flow hood. Then, 10% of the culture medium volume of reconstituted MTT was added, and the cultures were incubated for an additional 2 h. After that, cultures were taken out of the incubator, and the formazan crystals were dissolved using MTT solubilising solution [M-8910] in an amount equal to the volume of the original culture medium. The absorbance at 570 nm was measured. Finally, the IC50 of the test compound compared to the reference was calculated using the GraphPad Prism software.

human topoisomerase II = human topoisomerase II (Homo sapiens, UniProt P11388); experiment: DNA Topo II inhibition (kDNA decatenation) assay; assay type: biochemical
Procedure: The ATP-dependent decatenation of kinetoplast DNA (kDNA) obtained from Crithidia fasciculata, which consists of a network of numerous minicircles (2.3 Kb) and some maxicircles, was used to measure topoisomerase II inhibition. Reactions took place in 20 μL and comprised topoisomerase II, 200–300 ng of kDNA, and 120 mM KCl with 50 mM Tris-HCl, pH 8, 10 mM MgCl2, 0.5 mM ATP, and 0.5 mM dithiothreitol. In preliminary tests, the quantity of topoisomerase II (5 units) was changed to decatenate almost 100% of the kDNA under these assay circumstances. […] The products in the reaction mixture were separated by a 1% agarose gel after the reaction was complete and then could be seen after being stained with ethidium bromide (0.2 μg/mL). The gels were run at 100 V for about 40 min and visualised under UV transillumination.
This assay is based on the fact that human Topo II can decatenate interlinked double-stranded DNA molecules.

[4] = system: A498 renal cell carcinoma cell line; experiment: MTT cytotoxicity assay, A498
Procedure: as §1

A549 cells [5] = experiment: Annexin V-FITC apoptosis assay; assay type: cell-based, human
Procedure: Each well of a 6-well plate received 1 × 10^5 conc. lung cancer (A549) cells that were then incubated for 24 h. The cells were then exposed for 24 h to 2 nM compound 4c or (0.1%) DMSO before being harvested, washed with PBS, and stained for 15 min at room temperature in the dark with annexin V-FITC and PI in binding buffer ([…] at pH 7.4). The flow cytometer was then used to examine the cells.
Apoptotic cell death is a method by which an anticancer agent destroys tumour cells. Therefore, compound 4c was additionally estimated through an Annexin V-FITC experiment utilising A549 cells to evaluate if the cytotoxic action of the novel compound is related to necrosis or apoptosis.

A549 cells [6] = experiment: Cell cycle analysis by flow cytometry; assay type: cell-based, human; conditions: A549, 4c at IC50 (2 nM), 24 h (b61 also says 48 h)
Procedure: Briefly, a six-well plate containing lung cancer (A549) cells was seeded with 1 × 10^5 cells per well and then incubated for 24 h. 2 nM of compound 4c or 0.1% DMSO was applied to the cells for 24 h. Following that, cells were gathered and fixed in ice-cold 70% ethanol at 4 °C for 12 h. The cells were then rinsed with cold Phosphate Buffer Saline (PBS) and incubated for 30 min at 37 °C in 0.5 ml of PBS after the ethanol was removed. Propidium iodide was used to stain the cells for 30 min in the dark. DNA content was determined using a flow cytometer.
The cell cycle is required for cell division and replication. The cell cycle was divided into four distinct phases: G1 phase ([…]), S phase (synthesis), G2 phase (interphase), and M phase (mitosis). The G1 phase, also known as the post-mitotic pre-synthesis phase, is distinguished by direct cell division. DNA replication identifies the S phase. The G2 phase, premitotic, or post-synthetic phase, which can be considered the actual division, is when the cell prepares to split into two cells. Finally, the doubled DNA organised in chromosomes is separated during the M- or mitosis-phase division. Many anticancer drugs cause apoptosis, cell cycle arrest, or a combination of both as part of their cytotoxic action.

Chain of human topoisomerase II (P11388 whole entry): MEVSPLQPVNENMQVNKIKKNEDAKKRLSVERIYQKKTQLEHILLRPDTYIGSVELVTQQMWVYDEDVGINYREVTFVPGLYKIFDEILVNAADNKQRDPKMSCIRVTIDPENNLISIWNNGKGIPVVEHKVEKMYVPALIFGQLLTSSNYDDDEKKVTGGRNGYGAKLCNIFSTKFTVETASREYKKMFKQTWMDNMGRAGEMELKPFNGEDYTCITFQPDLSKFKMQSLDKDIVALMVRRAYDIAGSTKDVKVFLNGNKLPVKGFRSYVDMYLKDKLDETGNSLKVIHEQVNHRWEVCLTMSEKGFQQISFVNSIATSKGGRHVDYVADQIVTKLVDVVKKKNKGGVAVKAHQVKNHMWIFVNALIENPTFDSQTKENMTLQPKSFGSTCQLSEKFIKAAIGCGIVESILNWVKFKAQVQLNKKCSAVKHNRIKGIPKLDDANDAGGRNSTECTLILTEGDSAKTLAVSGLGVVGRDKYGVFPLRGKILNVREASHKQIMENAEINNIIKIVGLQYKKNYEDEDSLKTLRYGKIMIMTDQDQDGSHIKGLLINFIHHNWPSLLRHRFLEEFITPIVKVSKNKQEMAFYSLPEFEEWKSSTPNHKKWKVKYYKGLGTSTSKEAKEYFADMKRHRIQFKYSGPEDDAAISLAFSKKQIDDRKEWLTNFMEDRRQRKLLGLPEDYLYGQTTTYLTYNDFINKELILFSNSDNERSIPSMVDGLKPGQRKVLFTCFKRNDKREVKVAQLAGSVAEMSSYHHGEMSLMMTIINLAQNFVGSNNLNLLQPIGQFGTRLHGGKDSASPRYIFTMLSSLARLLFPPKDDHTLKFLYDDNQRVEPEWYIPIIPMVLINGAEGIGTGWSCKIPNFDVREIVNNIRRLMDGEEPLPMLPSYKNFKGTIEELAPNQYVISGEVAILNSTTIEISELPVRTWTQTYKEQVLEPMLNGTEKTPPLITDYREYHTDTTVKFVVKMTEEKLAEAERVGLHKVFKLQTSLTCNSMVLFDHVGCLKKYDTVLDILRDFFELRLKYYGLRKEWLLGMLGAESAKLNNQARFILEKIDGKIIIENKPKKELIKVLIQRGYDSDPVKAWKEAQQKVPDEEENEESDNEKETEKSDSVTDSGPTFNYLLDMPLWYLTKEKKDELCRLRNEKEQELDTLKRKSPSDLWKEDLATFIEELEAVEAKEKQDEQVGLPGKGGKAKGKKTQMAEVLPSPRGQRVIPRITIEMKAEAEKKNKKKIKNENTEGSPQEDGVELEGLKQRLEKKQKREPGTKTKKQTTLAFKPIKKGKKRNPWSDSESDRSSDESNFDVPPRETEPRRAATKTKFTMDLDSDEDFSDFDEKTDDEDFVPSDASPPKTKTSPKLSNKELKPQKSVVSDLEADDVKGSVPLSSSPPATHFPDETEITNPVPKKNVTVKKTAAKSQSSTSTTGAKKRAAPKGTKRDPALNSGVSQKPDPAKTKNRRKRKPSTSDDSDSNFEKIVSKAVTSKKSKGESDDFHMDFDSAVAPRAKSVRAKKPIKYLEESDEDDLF

- %inh TOPO II (human topoisomerase II; conc 0.1 (μM)): 44%
- %inh TOPO II (human topoisomerase II; conc 1 (μM)): 60%
- %inh TOPO II (human topoisomerase II; conc 10 (μM)): 79%
- %inh TOPO II (human topoisomerase II; conc 100 (μM)): 92%
- IC50 (human topoisomerase II; kDNA decatenation, four concentrations 0.1-100 µM, mean ± SD of two independent assays): 230 ± 10 nM
- Topo II potency relative to Doxorubicin (IC50 ratio) (human topoisomerase II; versus IC50 of Doxorubicin): 3.6 fold
- Topo II potency relative to Etoposide (IC50 ratio) (human topoisomerase II; versus IC50 of Etoposide): 1.4 fold
Compound: CCOC(=O)C1=C(C)N=C2SC=C(NC(=O)c3c(Cl)cc(Cl)cc3Cl)N2C1c1ccc(OC)cc1OC (stereo not drawn) [Compound 4c, Ethyl 5–(2,4-dimethoxyphenyl)-7-methyl-3–(2,4,6-trichlorobenzamido)-5H-thiazolo[3,2-a]pyrimidine-6-carboxylate]
- Selectivity index (SI) MCF7 [1]: 7770
- IC50 ([2]; Homo sapiens, A549, 24 h, read-out: Cytotoxicity IC50 A549± SD, MTT, A549, 24 h treatment, mean ± SD of two independent assays): 2 nM
- Selectivity index (SI) A549 ([2]; SI = IC50 normal cell (WI-38)/IC50 cancer cell (A549)): 7770
- IC50 ([2]; read-out: Cytotoxicity IC50 A549± SD, MTT, A549, 24 h treatment, mean ± SD of two independent assays): 1 nM
- IC50 at 24 h [3]: 15500 ± 840 nM
- IC50 ([4]; Homo sapiens, A498, 24 h, read-out: Cytotoxicity IC50 A498± SD, MTT, A498, 24 h treatment, mean ± SD of two independent assays): 1 nM
- Selectivity index (SI) A498 ([4]; SI = IC50 normal cell (WI-38)/IC50 cancer cell (A498)): 15540
- IC50 ([4]; read-out: Cytotoxicity IC50 A498± SD, MTT, A498, 24 h treatment, mean ± SD of two independent assays): 2 nM
- elevation in the total apoptosis versus control (A549 cells [5]; A549): 26.47 fold
- increase in early apoptotic cells versus control (A549 cells [5]; A549): 61.92 fold
- increase in late apoptotic cells versus control (A549 cells [5]; A549): 97 fold
- increase in the percentage of necrosis versus control (A549 cells [5]; A549): 2.5 fold
- late apoptotic cells (A549 cells [5]; A549, 4c at IC50 (2 nM), control 0.13%): 12.61%
- early apoptotic cells (A549 cells [5]; A549, 4c at IC50 (2 nM), control […]): 24.15%
- %G2/M (A549 cells [6]; control 13.97): 4.04%
- %S (A549 cells [6]; control 29.64): 26.89%
- %G0–G1 (A549 cells [6]; control 56.39): 69.07%
